Experimental data published in PMC6013238, “Development of novel NEMO-binding domain mimetics for inhibiting IKK/NF-κB activation” (PLoS Biology, 2018).
Values joined by “and” are separate entries in the source; they are usually repeats but may differ in a detail not shown here. Identical values can stand only once.

What was measured:
[1] = Body weight of chronically treated mdx mice; conditions: in g (unit assumed); for Body weight AVG: group average (FigS3A); for Body weight: individual mouse (FigS3A)
[2] = test system: NF-κB target genes; experiment: LPS-induced acute inflammation, qRT-PCR of NF-κB target genes in lung and liver; assay type: in vivo, mouse
Description: Fig 6 Newly identified NBD mimetics suppress LPS-induced acute inflammation in vivo. (A) The bioavailability property of SR12460, SR12343, SR12454, and SR11481. Concentrations of NBD mimetics were determined in plasma, brain, muscle, spleen, and liver 2 h post a single i.p. injection of 10 mg/kg of drugs; n = 3 per group. (B) Shown is the model to induce LPS-mediated acute inflammation and the treatment regimen with NBD mimetics. Mouse image via http://www.clker.com/clipart-mice-blank.html (copyright-free). (C) NBD mimetics suppressed LPS-induced acute inflammation in liver and lung by down-regulating NF-κB target gene expression. Vehicle, SR12343, SR12460, and 8K-NBD peptide were dosed at 10 mg/kg 30 min prior to the LPS treatment. Acute inflammation was induced by i.p. injection of 10 mg/kg LPS. Lung and liver were collected 2–4 h post injection, and mRNA was extracted for qRT-PCR analysis. (D, E) Western blot analysis was performed to probe for the expression of p-IκBα and COX-2 at protein level in liver and lung tissues. (F) Serum levels of IL-6 were determine by ELISA. n = 3–8 each group. *P < 0.05, **P < 0.01. Underlying data can be found in S1 Data. COX-2, cyclooxygenase 2; IL-6, interleukin 6; i.p., intraperitoneal; LPS, lipopolysaccharide; NBD, NEMO-binding domain; n.d., nondetectable; NEMO, NF-κB essential modulator; NF-κB, nuclear factor κB; qRT-PCR, quantitative real-time polymerase chain reaction. TEXT PRINTED IN THE PICTURE: (A) SR11481: Concentration (ng/ml): n.d. (plasma)
To determine their NF-κB inhibitory effects in vivo, SR12343 and SR12460 were tested in an acute model of LPS-induced systemic endotoxemia. C57BL/6J mice were pretreated with vehicle control, 8K-NBD peptide, or NBD mimetics at 10 mg/kg for 30 min, followed by LPS induction at 10 mg/kg (Fig 6B). Lung and liver were harvested 2–4 h post treatment for qRT-PCR analysis of NF-κB target genes. […] Despite lower plasma and tissue concentrations of SR12343 compared to SR12460, its inhibition of NF-κB/IKK in liver and lung were greater than that of SR12460 (Fig 6C). Similarly, acute treatment with SR12343 also affected the LPS-induced expression of NF-κB target genes at protein level. The extent of phosphorylation of IκBα and the levels of COX-2 were reduced in lung and liver tissues treated with SR12343 (Fig 6D and 6E). […] However, no significant differences in lung histopathology were observed. Finally, there was a slight reduction in the number of white blood cells and neutrophils in the SR12343-treated group (Table 2).
LPS (strain O111:B4) was prepared in PBS at a sublethal dose of 10 mg/kg. Female WT mice 8 to 10 wk old (20–30 g) were dosed by i.p. injection with vehicle, NBD peptide (10 mg/kg), or small molecules (10 mg/kg) for 30 min, followed by i.p. injection of saline (1 mL/kg) or LPS (10 mg/kg). Mice were euthanized 2 to 4 h post treatment, and lung and liver tissues were collected for further analysis.
Snap-frozen tissues were preserved in RNAlater RNA stabilization solution (ThermoFisher). Total RNA was extracted from cells or tissues by using TRIZOL reagent (Life Technologies), and 1,500 ng of mRNA was subjected to synthesis of cDNA using SuperScript VILO cDNA synthesis kit. qRT-PCR was performed in a StepOnePlus Real-Time PCR system using Platinum SYBR Green qPCR SuperMix-UDG (ThermoFisher). Target gene expression was calculated using the comparative CT method (ΔΔCT) by normalizing to an internal control gene Actb (β-actin). […]

[3] = Fig 6C, 10 mg/kg 30 min before LPS 10 mg/kg i.p., 2-4 h, single mice

Compound | Body weight AVG ([1]; Day 21) | Body weight ([1]; Day 21) | Body weight AVG ([1]; Day 23) | Body weight ([1]; Day 23) | Body weight AVG ([1]; Day 26) | Body weight ([1]; Day 26) | Body weight AVG ([1]; Day 28) | Body weight ([1]; Day 28) | Body weight AVG ([1]; Day 30) | Body weight ([1]; Day 30) | Body weight AVG ([1]; Day 32) | Body weight ([1]; Day 32) | Body weight AVG ([1]; Day 34) | Body weight ([1]; Day 34) | Body weight AVG ([1]; Day 37) | Body weight ([1]; Day 37) | Body weight AVG ([1]; Day 39) | Body weight ([1]; Day 39) | Body weight AVG ([1]; Day 41) | Body weight ([1]; Day 41) | other results
O=C(CNc1ccc(Cl)cn1)NCCc1cccc(Br)c1 [SR12343] | 8.8 | 8.1 and 9 and 8.6 and 10 and 8.3 | 10.48 | 9.5 and 11.4 and 9.8 and 10.7 and 11 | 12.2 | 10.8 and 13.9 and 12.3 and 11.7 | 13.48 | 12.7 and 14.8 and 12.2 and 13.2 and 14.5 | 15.66 | 12.5 and 17.3 and 16.6 and 15.5 and 16.4 | 18.96 | 16.4 and 21.5 and 20 and 18 and 18.9 | 19.78 | 16.9 and 22.5 and 20.5 and 19.4 and 19.6 | 20.46 | 18.3 and 23 and 21.4 and 19.4 and 20.2 | 21.7333 | 18.2 and 24.1 and 22.9 | 22.4 | 19.6 and 25 and 22.6 | Body weight AVG ([1]; Day 44): 22.9667; Body weight ([1]; Day 44): 20 and 24.7 and 24.2; Body weight AVG ([1]; Day 46): 22.8667; Body weight ([1]; Day 46): 21 and 24 and 23.6; NF-κB transcriptional activity in lung (iNOS, IκBα, COX-2, IL-6) ([2]; 10 mg/kg, LPS 10 mg/kg): significantly inhibit; ikBa mRNA in liver (qRT-PCR, relative to vehicle) [2, 3]: 1.072 and 1.242 and 1.317 and 1.467 and 0.7748 and 0.7346 and 1.371; ikBa mRNA in lung (qRT-PCR, relative to vehicle) [2, 3]: 0.8689 and 0.6292 and 0.6865 and 0.9681 and 0.6797 and 1.015 and 0.7177
O=C(CNCCc1cc(F)cc(F)c1)Nc1ccc(Cl)cn1 [SR12460] | 8.34 | 8.5 and 8.8 and 6.9 and 9 | 9.96 | 10.5 and 9.7 and 8.5 and 10.3 and 10.8 | 11.42 | 12.6 and 10.7 and 10.9 and 11.3 and 11.6 | 13.58 | 14.1 and 14.6 and 13.2 and 12.6 and 13.4 | 14.92 | 16.1 and 13.5 and 14.9 and 14.4 and 15.7 | 18.56 | 20.3 and 16.4 and 20.2 and 18.3 and 17.6 | 19.58 | 21 and 17.1 and 21.1 and 18.8 and 19.9 | 20.22 | 22.2 and 18.3 and 19.3 and 19.1 | 21.5333 | 22.3 and 18.8 and 23.5 | 22.4 | 23.1 and 19.5 and 24.6 | Body weight AVG ([1]; Day 44): 22.7333; Body weight ([1]; Day 44): 23.7 and 19.3 and 25.2; Body weight AVG ([1]; Day 46): 23.7; Body weight ([1]; Day 46): 25 and 20.1 and 26; iNOS mRNA in lung (qRT-PCR, relative to vehicle) [2, 3]: 0.4025 and 0.5396 and 0.4809 and 0.7846 and 0.6512 and 0.5854 and 0.4587 and 0.5387; ikBa mRNA in lung (qRT-PCR, relative to vehicle) [2, 3]: 0.8864 and 1.179 and 0.7265 and 0.7577 and 0.6496 and 0.9355 and 0.7819
